Assay results reported in ChEMBL document CHEMBL1151169, “New beta-caryophyllene-derived terpenoids from the soft coral Sinularia nanolobata” (2004).
Values after ≈ are worked out from the molar mass of the structure shown.

Key:
Format in all cases: functional
[1] = Cytotoxicity against human HEPA 59T/VGH cells by MTT assay; details: read-out: ED50 (the source's name)
KB = experiment: Cytotoxicity against human KB cells by MTT assay; details: read-out: ED50 (the source's name)
NCI-H661 = experiment: Cytotoxicity against human NCI-H661 cells by MTT assay; details: read-out: ED50 (the source's name)
[2] = Cytotoxicity against human Medulloblastoma cells by MTT assay; details: Medulloblastoma cell, read-out: ED50 (the source's name)
DLD-1 = experiment: Cytotoxicity against human DLD1 cells by MTT assay; details: read-out: ED50 (the source's name)
HeLa = experiment: Cytotoxicity against human HeLa cells by MTT assay; details: read-out: ED50 (the source's name)

COc1cccc2c1C(=O)c1c(O)c3c(c(O)c1C2=O)C[C@@](O)(C(=O)CO)C[C@@H]3O[C@H]1C[C@H](N)[C@H](O)[C@H](C)O1 [DOXORUBICIN]
EC50 [1]: 0.47 mg/L (≈ 0.865 µM) | EC50 (KB): 0.25 mg/L (≈ 0.46 µM) | EC50 (NCI-H661): 0.29 mg/L (≈ 0.534 µM) | EC50 [2]: 0.41 mg/L (≈ 0.754 µM) | EC50 (DLD-1): 0.57 mg/L (≈ 1.05 µM) | EC50 (HeLa): 0.22 mg/L (≈ 0.405 µM)
